# Target: T1, human β3 adrenergic receptor (Homo sapiens, UniProt P13945)
# T1 construct: expressed in transfected cells
# Experiment: whole cell receptor coupled c-AMP assay (Emax relative to isoproterenol)
# Assay type: cell-based
# Settings: % intrinsic activity: maximal response divided by isoproterenol maximal response times 100; transfected CHO cells; average of at least 3 runs
# Outline: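 Stably transfected CHO DXB-11 cells expressing human β3 receptor incubated 20 min at 37 °C with compound in HBSS/HEPES pH 7.4 containing 1 mM IBMX. cAMP measured by SPA; four-parameter logistic fit, Emax = maximal response as % of isoproterenol maximum.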
# T1 sequence (P13945 whole entry): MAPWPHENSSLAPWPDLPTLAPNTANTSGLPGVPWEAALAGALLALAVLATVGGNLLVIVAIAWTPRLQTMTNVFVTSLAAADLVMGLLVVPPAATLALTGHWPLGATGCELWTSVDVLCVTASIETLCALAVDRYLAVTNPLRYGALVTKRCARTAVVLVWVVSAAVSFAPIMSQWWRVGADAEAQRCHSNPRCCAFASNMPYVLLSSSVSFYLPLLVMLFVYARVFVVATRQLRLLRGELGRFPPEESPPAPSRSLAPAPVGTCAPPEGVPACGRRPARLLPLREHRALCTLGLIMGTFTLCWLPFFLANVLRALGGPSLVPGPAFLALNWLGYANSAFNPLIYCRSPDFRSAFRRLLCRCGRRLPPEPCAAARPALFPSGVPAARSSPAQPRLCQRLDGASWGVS
row,Compound,Emax (%) ± SEM [%]
1,CC(C)(Cc1c[nH]c2c(-c3ccsc3)cccc12)NC[C@H](O)COc1ccccc1-c1ccon1 [Example 107],57.9 ± 6.2
2,CC(C)(Cc1c[nH]c2cc(F)ccc12)NC[C@H](O)COc1ccccc1-c1ccon1 [Example 172],55.0 ± 1.1
3,CC(C)(Cc1c[nH]c2c(C(=O)O)cccc12)NC[C@H](O)COc1ccccc1-c1ccc(S(N)(=O)=O)s1 [Example 54],79.0 ± 3.5
4,COC(=O)c1ccc2c(ccn2C[C@@H](C)NC[C@H](O)COc2ccccc2-c2cccs2)c1 [Example 154],32.4 ± 8.1
5,CC(C)(Cc1c[nH]c2ccc(F)cc12)NC[C@H](O)COc1ccccc1-c1ccon1 [Example 167],40.8 ± 1.3
6,CC(C)(Cc1c[nH]c2cc(C(=O)O)ccc12)NC[C@H](O)COc1ccccc1-c1ccsc1 [Example 62],63.8 ± 0.5
7,Cc1csc(-c2ccccc2OC[C@@H](O)CNC(C)(C)Cc2c[nH]c3ccccc23)c1.O=C(O)C(F)(F)F [Example 21],61.3 ± 3.2
8,Cc1cc(-c2ccccc2OC[C@@H](O)CNC(C)(C)Cc2c[nH]c3c(OCC#N)cccc23)cs1.O=C(O)C(F)(F)F [Example 18],52.3 ± 0.7
9,CC(C)(Cc1c[nH]c2c(OCC#N)cccc12)NC[C@H](O)COc1ccccc1-c1ccon1 [Example 132],53.6 ± 1.4
10,CC(C)(Cc1c[nH]c2c(OCC#N)cccc12)NC[C@H](O)COc1ccccc1-c1cc(C#N)cs1.O=C(O)C(F)(F)F [Example 20],59.1 ± 3.1
11,COC(=O)c1ccc(-c2cccc3c(CC(C)(C)NC[C@H](O)COc4ccccc4-c4cccs4)c[nH]c23)s1 [Example 181],39.6 ± 0.7
12,C[C@H](Cn1ccc2c(OCC#N)cccc21)NC[C@H](O)COc1ccccc1-c1cccs1 [Example 152],63.1 ± 4.4
13,CC(C)(Cc1c[nH]c2c(NS(C)(=O)=O)cccc12)NC[C@H](O)COc1ccccc1-c1ccc(S(N)(=O)=O)s1 [Example 30],90.0 ± 6.6
14,CC(C)(Cc1c[nH]c2c(OCC#N)cccc12)NC[C@H](O)COc1ccccc1-c1csc(C#N)c1.O=C(O)C(F)(F)F [Example 16],54.2 ± 2.2
15,COC(=O)c1cccc2c1ccn2C[C@@H](C)NC[C@H](O)COc1ccccc1-c1cccs1 [Example 153],45.2 ± 8.4

# More lines, now with the values ahead:
row,Emax (%) ± SEM [%],Compound
1,53.9 ± 2.6,CC(C)(Cc1c[nH]c2ccccc12)NC[C@H](O)COc1ccccc1-c1ccon1 [Example 164]
2,76.1 ± 2.9,CC(C)(Cc1c[nH]c2ccccc12)NC[C@H](O)COc1ccccc1-c1ccc(F)s1 [Example 126]
3,57.6 ± 0.6,CC(C)(Cc1c[nH]c2c(C(N)=O)cccc12)NC[C@H](O)COc1ccccc1-c1cccs1 [Example 174]
4,81.0 ± 3.2,CC(C)(Cc1c[nH]c2c(NS(C)(=O)=O)cccc12)NC[C@H](O)COc1ccccc1-c1cccs1 [Example 27]
5,76.5 ± 12.6,CC(C)(Cc1c[nH]c2c(OCC#N)cccc12)NC[C@H](O)COc1ccccc1-c1cccs1 [Example 101]
6,47.3 ± 2.3,CC(C)(Cc1c[nH]c2c(C=Cn3cncn3)cccc12)NCC(O)COc1ccccc1-c1cccs1 (stereo not drawn) [Example 146]
7,47.2 ± 0.3,COC(=O)c1ccc2c(CC(C)(C)NC[C@H](O)COc3ccccc3-c3cccs3)c[nH]c2c1 [Example 75]
8,75.9 ± 1.9,CC(C)(Cc1c[nH]c2ccccc12)NC[C@H](O)COc1ccccc1-c1ncco1 [Example 33]
9,47.4 ± 1.8,CC(C)(Cc1c[nH]c2ccc(C(N)=O)cc12)NC[C@H](O)COc1ccccc1-c1cccs1 [Example 71]
10,79.3 ± 7.1,COC(=O)CCc1cccc2c(CC(C)(C)NC[C@H](O)COc3ccccc3-c3cccs3)c[nH]c12 [Example 145]
11,78.0 ± 8.5,CC(C)(Cc1c[nH]c2c(-c3ccsc3)cccc12)NC[C@H](O)COc1ccccc1-c1cccs1 [Example 106]
12,51.3 ± 7.8,CC(C)(Cc1c[nH]c2ccccc12)NC[C@H](O)COc1ccccc1-c1cccs1 [Example 157]

# Same assay, conditions: CHO, % intrinsic activity relative to isoproterenol; transfected CHO cells
row,Emax [%],Compound
1,85,CC(C)(Cc1c[nH]c2c(OCC#N)cccc12)NC[C@H](O)COc1ccccc1-c1ccc(C#N)s1 [Example 202]

# Same assay, conditions: CHO, % intrinsic activity: maximal response divided by isoproterenol maximal response times 100; transfected CHO cells; average of at least 3 runs
row,Compound,Emax [%]
1,CC(C)(Cc1c[nH]c2c(OCC#N)cccc12)NC[C@H](O)COc1ccccc1-n1cccc1 [Example 256],71.4 ± 2.7
2,CC(C)(CC1=CCc2c(Oc3ccc(C(N)=O)cn3)cccc21)NC[C@H](O)COc1ccccc1-c1cccs1 [Example 219],85.9 ± 9.4

# Continued, values first:
row,Emax [%],Compound
1,83 ± 2.5,CC(C)(Cc1c[nH]c2c(OCc3nnn[nH]3)cccc12)NC[C@H](O)COc1ccccc1-c1cccs1 [Example 229]
2,88.4 ± 3.9,CC(C)(Cc1c[nH]c2cc(OCC(=O)O)ccc12)NC[C@H](O)COc1ccccc1-c1cccs1 [Example 236]
3,78.7 ± 2.4,CC(C)(Cc1c[nH]c2cc(C(=O)O)ccc12)NC[C@H](O)COc1ccccc1-c1cccs1 [Example 240]

# — patent US7208505B2, “β3 adrenergic agonists” (Eli Lilly and Company, priority 2001, dated 2007)
